Like-named read-outs stand apart in the source and are kept apart here.
Assays:
M2 muscarinic receptor = molecular target: T1, M2 muscarinic receptor (Rattus norvegicus, UniProt P10980); experiment: [3H]-N-methylscopolamine radioligand binding assay, rat heart membranes; conditions: rat heart, [3H]NMS
T1 construct: Submandibular glands and heart were isolated and placed in ice cold homogenising buffer; from tissue; host or cells: rat heart membrane homogenate
T1 sequence (P10980 1-466): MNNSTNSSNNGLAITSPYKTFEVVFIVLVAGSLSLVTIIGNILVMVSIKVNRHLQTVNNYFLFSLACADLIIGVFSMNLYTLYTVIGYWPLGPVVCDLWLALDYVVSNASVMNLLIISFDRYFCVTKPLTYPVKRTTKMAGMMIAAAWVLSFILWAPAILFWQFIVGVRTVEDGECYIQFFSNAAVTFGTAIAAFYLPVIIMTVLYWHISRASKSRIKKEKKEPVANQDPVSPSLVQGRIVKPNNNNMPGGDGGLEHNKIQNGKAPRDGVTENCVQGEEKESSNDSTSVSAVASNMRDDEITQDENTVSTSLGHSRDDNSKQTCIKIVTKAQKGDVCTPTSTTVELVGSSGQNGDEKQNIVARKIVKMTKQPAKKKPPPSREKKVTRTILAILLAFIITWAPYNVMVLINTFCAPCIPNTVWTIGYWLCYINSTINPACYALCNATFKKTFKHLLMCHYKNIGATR

M3 muscarinic receptor = molecular target: T2, M3 muscarinic receptor (Rattus norvegicus, UniProt P08483); experiment: [3H]-N-methylscopolamine radioligand binding assay, rat submandibular gland membranes; conditions: rat submandibular gland, [3H]NMS
T2 construct: Submandibular glands and heart were isolated and placed in ice cold homogenising buffer; from tissue; host or cells: rat submandibular gland membrane homogenate
T2 sequence (P08483 whole entry): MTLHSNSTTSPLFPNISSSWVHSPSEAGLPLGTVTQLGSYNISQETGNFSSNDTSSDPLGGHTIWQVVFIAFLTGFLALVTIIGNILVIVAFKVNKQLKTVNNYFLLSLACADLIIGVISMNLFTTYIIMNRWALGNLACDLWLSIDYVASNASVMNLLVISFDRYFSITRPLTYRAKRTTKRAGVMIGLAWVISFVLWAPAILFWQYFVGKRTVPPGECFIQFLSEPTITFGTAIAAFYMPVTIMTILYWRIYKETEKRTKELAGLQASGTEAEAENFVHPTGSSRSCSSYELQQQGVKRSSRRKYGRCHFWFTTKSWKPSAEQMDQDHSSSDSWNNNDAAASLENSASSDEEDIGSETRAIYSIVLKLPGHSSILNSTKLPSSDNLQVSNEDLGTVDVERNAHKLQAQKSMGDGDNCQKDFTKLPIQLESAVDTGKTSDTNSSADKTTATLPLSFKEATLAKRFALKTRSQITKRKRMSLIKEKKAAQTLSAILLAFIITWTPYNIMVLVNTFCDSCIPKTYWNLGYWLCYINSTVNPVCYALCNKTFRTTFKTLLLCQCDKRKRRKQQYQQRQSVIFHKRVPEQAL

[1] = Table IV, read-out: Receptor Binding Assay (pKi) M2 (converted)
[2] = Table IV, read-out: Receptor Binding Assay (pKi) M3 (converted)
[3] = Table III, read-out: M2 Ki (nm)
[4] = Table III, read-out: M3 Ki (nm)

Structure (SMILES) | Ki (M2 muscarinic receptor; [1]) [µM] | Ki (M3 muscarinic receptor; [2]) [µM] | M2 pKi (M2 muscarinic receptor; Table III) | Ki (M2 muscarinic receptor; [3]) [µM] | M3 Pki (M3 muscarinic receptor; Table III) | Ki (M3 muscarinic receptor; [4]) [µM]
O=C(N[C@H]1[C@@H]2CNC[C@@H]21)C(c1ccccc1)c1ccccc1 [Compound No. 97, (1α,5α,6α)-6N-(3-azabicyclo-[3.1.0]hexyl)-2,2-diphenyl acetamide] | > 1 | > 1 | – | – | – | –
O=C(N[C@H]1[C@@H]2CNC[C@@H]21)C(O)(c1ccccc1)C1CCCCCC1 (stereo partly drawn) [Compound No. 90, (1α,5α,6α)-6-N-(3-azabicyclo[3.1.0]hexyl)-2-cycloheptyl-2-hydroxy-2-phenylacetamide] | > 1 | 0.363 | – | – | – | –
O=C(Cc1ccc2c(c1)CCO2)N1CC2C(C1)C2NC(=O)C(O)(c1ccccc1)C1CCCC1 (stereo not drawn) [Compound No. 70, (1α,5α,6α)-6-N-(3-azabicyclo[3.1.0]hexyl-3-(1-(2,3-dihydrobenzofuran-5-yl)acetyl))-2-cyclopentyl-2-hydroxy-2-phenyl acetamide] | – | – | <5 | > 10 | 6.12 | 0.75
O=C(N[C@H]1[C@@H]2CNC[C@@H]21)C(O)(c1ccccc1)C1CCC1 (stereo partly drawn) [Compound No. 91, (1α,5α,6α)-6-N-(3-azabicyclo[3.1.0]hexyl)-2-cyclobutyl-2-hydroxy-2-phenylacetamide] | 100 | 2.75 | – | – | – | –
COC(C(=O)NC1C2CNCC21)(c1ccccc1)C1CCCCC1 (stereo not drawn) [Compound No. 98, (1α,5α,6α)-6N-(3-azabicyclo-[3.1.0]hexyl)-2-cyclohexyl-2-methoxy-2-phenyl acetamide] | > 1 | > 1 | – | – | – | –
O=C(N[C@H]1[C@@H]2CN(CCc3ccc4c(c3)CCO4)C[C@@H]21)C(O)(c1ccccc1)C1CCCC1 (stereo partly drawn) [Compound No. 68, (1α,5α,6α)-6-N-(3-azabicyclo[3.1.0]hexyl-3-(2-(2,3-dihydrobenzofuran-5-yl)ethyl))-2-cyclopentyl-2-hydroxy-2-phenyl acetamide] | – | – | – | > 1 | – | 0.108
O=C(Cc1ccc2c(c1)CCO2)N1CC2C(C1)C2NC(=O)C(O)(c1ccccc1)C1CCCCC1 (stereo not drawn) [Compound No. 30, (1α,5α,6α)-6-N-(3-azabicyclo[3.1.0]hexyl-3-(1-(2,3-dihydrobenzofuran-5-yl)acetyl))-2-cyclohexyl-2-hydroxy-2-phenyl acetamide] | – | – | <5 | – | 6.08 | 0.833
CC(C)(C)c1ccc(C(O)(C(=O)NC2C3CN(Cc4ccccc4)CC32)C2CCCCC2)cc1 (stereo not drawn) [Compound No. 55, (1α,5α,6α)-6-N-(3-azabicyclo[3.1.0]hexyl-3-benzyl)-2-cyclohexyl-2-hydroxy-2-(4-tertbutylphenyl)acetamide] | – | – | – | > 1 | – | 0.38
O=C(NC1C2CNCC21)C(O)(c1ccc(F)cc1)C1CCCCC1 (stereo not drawn) [Compound No. 86, (1α,5α,6α)-6-N-(3-azabicyclo-[3.1.0]hexyl)-2-cyclohexyl-2-hydroxy-2-(4-Fluorophenyl)acetamide] | > 1 | > 1 | – | – | – | –
O=C(N[C@H]1[C@@H]2CNC[C@@H]21)C(O)(c1ccccc1)C1CCCCC1 (stereo partly drawn) [Compound No. 85, (1α,5α,6α)-6-N-(3-azabicyclo[3.1.0]hexyl)-2-cyclohexyl-2-hydroxy-2-phenylacetamide] | > 1 | > 1 | – | – | – | –
O=C(NC1C2CNCC21)C(O)(c1ccccc1)C1CCCC1 (stereo not drawn) [Compound No. 89, (1α,5α,6α)-6-N-(3-azabicyclo-[3.1.0]hexyl)-2-cyclopentyl-2-hydroxy-2-phenylacetamide] | > 1 | > 1 | – | – | – | –
O=C(NC1C2CN(CCc3ccc4occc4c3)CC21)C(O)(c1ccccc1)C1CCCCC1 (stereo not drawn) [Compound No. 31, (1α,5α,6α)-6-N-(3-azabicyclo[3.1.0]hexyl-3-(2-(benzofuran-5-yl)ethyl))-2-cyclohexyl-2-hydroxy-2-phenyl acetamide] | – | – | – | 1.59 | – | 0.233
O=C(N[C@H]1[C@@H]2CNC[C@@H]21)C(O)(c1ccccc1)C1CC1 (stereo partly drawn) [Compound No. 92, (1α,5α,6α)-6-N-(3-azabicyclo-[3.1.0]hexyl)-2-cyclopropyl-2-hydroxy-2-phenylacetamide] | > 10 | > 10 | – | – | – | –

— patent publication US7232835B2, “3,6-Disubstituted azabicyclo derivatives as muscarinic receptor antagonists” (Ranbaxy Laboratories Limited, priority 2002, dated 2007)
